Positions count from the first letter of the chain named. pIC50: −log10 of the molar value. Where two headings read alike, the source gives them in different places.
Legend:
LOXL2 = target: T1, LOXL2 (Homo sapiens, UniProt Q9Y4K0); assay: LOX isoform activity assay (ROS Glo), LOXL2; assay type: biochemical
T1 construct: purchased R&D Systems/Bio-techne
T1 sequence (Q9Y4K0 26-774): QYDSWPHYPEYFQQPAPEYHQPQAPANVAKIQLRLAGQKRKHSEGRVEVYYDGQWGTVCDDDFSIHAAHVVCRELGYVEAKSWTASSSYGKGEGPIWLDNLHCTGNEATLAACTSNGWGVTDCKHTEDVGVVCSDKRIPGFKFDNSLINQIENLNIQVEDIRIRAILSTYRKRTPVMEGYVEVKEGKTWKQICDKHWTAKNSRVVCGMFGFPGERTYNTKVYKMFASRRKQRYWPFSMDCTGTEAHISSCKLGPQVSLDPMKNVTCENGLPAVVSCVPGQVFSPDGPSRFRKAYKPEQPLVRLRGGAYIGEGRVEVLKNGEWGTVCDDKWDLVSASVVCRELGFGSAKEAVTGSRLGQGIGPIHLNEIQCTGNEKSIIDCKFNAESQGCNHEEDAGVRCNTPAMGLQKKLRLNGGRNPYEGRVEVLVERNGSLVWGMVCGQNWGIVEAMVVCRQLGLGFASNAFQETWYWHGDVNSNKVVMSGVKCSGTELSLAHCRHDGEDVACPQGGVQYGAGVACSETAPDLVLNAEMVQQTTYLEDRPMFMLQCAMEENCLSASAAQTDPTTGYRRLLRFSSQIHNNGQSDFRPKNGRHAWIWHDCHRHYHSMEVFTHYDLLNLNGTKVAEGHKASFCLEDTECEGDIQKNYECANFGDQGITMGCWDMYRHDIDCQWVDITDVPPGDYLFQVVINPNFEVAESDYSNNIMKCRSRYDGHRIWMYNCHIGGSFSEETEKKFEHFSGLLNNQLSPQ
Method: (§1) LOX was extracted from pig skin by previously described methods (Shackleton and Hulmes, 1990). LOXL2 and LOXL3 were obtained from R&D Systems/Bio-techne. The Promega ROS Glo assay kit (G8821) was used to assess enzyme activity. Overall, test compound was added to either 384 well assay plates (Greiner) using a Labcyte Echo™ Acoustic Handler or to 96 well plates for a final assay concentration of 100, 30, 10, 3, 1, 0.3, 0.1, 0.03, 0.01 and 0.003 μM final assay concentration. Enzymes were diluted according to specific pre-determined activity in assay buffer (100 mM CHES, pH 9, 0.05% (w/v) pluronic F-127, 0.5% (w/v) BSA, 1 mM MgCl2, 1 M urea, 100 mM NaCl) and added to the plate. For LOXL2, the mixture was incubated for 20 min, 1 h or 20 h; for LOX and LOXL3, incubation time was 1 h. Cadaverine and H2O2 substrate were then added to each well (final assay concentration 19.56 mM and 25 μM respectively) and the plates were incubated for 1.5 h (for LOX) or 1 h (for LOXL2 and LOXL3) at room temperature. Finally, luciferin detection reagent was added and plates were incubated for 20 min at room temperature, protected from light. Luminescence was measured using a BMG LABTECH PHERAstar FS reader and resulting IC50 values were calculated using GraphPad Prism software.
In another setting, LOXL2 enzyme was diluted according to specific pre-determined activity in assay buffer (100 mM CHES, pH 9, 0.05% (w/v) pluronic F-127, 0.5% (w/v) BSA, 1 mM MgCl2, 1 M urea, 100 mM NaCl). Overall, 0.5 μl test compound was added to 40 μl assay buffer+LOXL2 at 100, 30, 10, 3, 1, 0.3, 0.1, 0.03, 0.01 and 0.003 μM (final concentration) in a 96-well white polystyrene, flat bottom plates (Fisher) and incubated for the indicated time at room temperature. 10 μl of assay buffer containing 97.8 mM cadaverine and 125 μM H2O2 substrate (final assay concentration 19.56 mM and 25 μM respectively) were added to each well and plates were incubated for 1 h at room temperature. Finally, 50 μl per well luciferin detection reagent was added and plates were incubated for 20 min at room temperature, protected from light. Luminescence was measured with an integration time of 500 ms per well using a SpectaMax M5 plate reader and resulting IC50 values were calculated using GraphPad Prism software.

LOX [1] = target: T2, LOX (Sus scrofa, UniProt P45845); assay: LOX isoform activity assay (ROS Glo), LOX; assay type: biochemical, pig; conditions: 1 h incubation with enzyme
T2 construct: LOX was extracted from pig skin by previously described methods; from tissue; host or cells: pig skin
T2 sequence (P45845 1-249): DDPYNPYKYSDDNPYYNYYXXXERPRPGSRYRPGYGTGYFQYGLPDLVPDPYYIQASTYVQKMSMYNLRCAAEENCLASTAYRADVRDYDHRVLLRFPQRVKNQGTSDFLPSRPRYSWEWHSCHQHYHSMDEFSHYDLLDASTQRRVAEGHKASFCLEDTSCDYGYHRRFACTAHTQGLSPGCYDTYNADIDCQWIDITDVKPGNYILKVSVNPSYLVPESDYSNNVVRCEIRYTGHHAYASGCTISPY
Method: as §1

LOXL3 = target: T3, LOXL3 (Homo sapiens, UniProt P58215); assay: LOX isoform activity assay (ROS Glo), LOXL3; assay type: biochemical; conditions: 1 h incubation with enzyme
T3 construct: purchased R&D Systems/Bio-techne
T3 sequence (P58215 26-753): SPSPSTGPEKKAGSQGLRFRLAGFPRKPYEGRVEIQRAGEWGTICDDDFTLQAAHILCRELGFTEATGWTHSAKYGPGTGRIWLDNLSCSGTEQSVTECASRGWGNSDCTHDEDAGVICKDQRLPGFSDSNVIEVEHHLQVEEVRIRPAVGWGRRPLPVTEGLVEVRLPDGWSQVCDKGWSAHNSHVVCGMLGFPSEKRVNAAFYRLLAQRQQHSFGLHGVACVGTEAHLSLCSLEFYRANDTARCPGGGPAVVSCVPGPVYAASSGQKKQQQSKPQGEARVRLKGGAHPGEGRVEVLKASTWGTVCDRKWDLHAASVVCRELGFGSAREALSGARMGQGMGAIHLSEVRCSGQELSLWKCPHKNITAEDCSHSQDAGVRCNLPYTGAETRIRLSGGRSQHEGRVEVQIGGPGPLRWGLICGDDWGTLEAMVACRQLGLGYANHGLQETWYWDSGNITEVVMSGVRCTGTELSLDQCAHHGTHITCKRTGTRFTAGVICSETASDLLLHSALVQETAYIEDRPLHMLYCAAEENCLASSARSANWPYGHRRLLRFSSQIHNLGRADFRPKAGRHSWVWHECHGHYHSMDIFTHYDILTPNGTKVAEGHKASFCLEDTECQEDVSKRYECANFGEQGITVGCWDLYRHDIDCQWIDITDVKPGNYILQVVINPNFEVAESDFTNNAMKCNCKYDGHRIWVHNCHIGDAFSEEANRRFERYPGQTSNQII
Method: as §1

LOX [2] = target: T4, LOX (Mus musculus, UniProt P28301); assay: LOX activity in cysts assay (roGFP2 LOX biosensor in MDCK cysts); assay type: cell-based; conditions: LOX
T4 construct: Full length LOX cDNA was then PCR cloned into pEGFP-N1 (Clonetech), or biosensor vector proGFP2—N1; expressed in transfected cells; host or cells: MDCK cells grown as cysts on Matrigel
T4 sequence (P28301 163-411): T2 sequence (P45845 1-249) with X20D, X21T, X22Y, Y31N, T80S, S142N, N188A, K202Q, S224T, E231D
Method: All cell lines used in this study were purchased from American Type Culture Collection (ATCC). Mycoplasma contamination was routinely monitored by PCR. Cells used were not found to be Mycoplasma positive. MDCK cell lines were cultured in Dulbecco's Modified Eagle Medium (DMEM) supplemented with 10% fetal bovine serum (FBS) and 1% Penicillin Streptomycin solution (Pen Strep). For GFP constructs transfection in MDCK cells, lipofectamine 3000 was used according to manufactures protocols. Cells were either selected with G418 (Life Technologies) at 5 mg/ml. All cell culture reagents were purchased from Life Technologies.
To produce MDCK cysts, cells were cultured on Matrigel (Corning) with 2% Matrigel supplemented in DMEM with 10% FBS. Cysts were allowed to form for 10 days before subsequent studies.
Mouse LOX cDNA was purchased from OriGene. Full length LOX cDNA was then PCR cloned into pEGFP-N1 (Clonetech), or biosensor vector proGFP2—N1 (Hanson, 2004) using the following primers, […] (forward primer) and […] (reverse primer). For the insertion into pEGFP-N1 or proGFP2—N1, Nhel and Xhol restriction sites were added to forward and reverse primers accordingly. Mutant LOX constructs were made using QuickChange II site-directed mutagenesis kit (Agilent Technologies) following manufacture's protocol using LOX-GFP as template. To generate, roGFP2 versions of LOX mutant constructs, LOX mutant cDNA was transferred from pEGFP-N1 to proGFP2—N1 using Nhel and Xhol.
All photomicrographs were taken with a Leica TCS SP8 X confocal system. For LOX biosensor imaging, live MDCK cysts were used. The oxidised biosensor was excited using a 405 nm laser, while the reduced biosensor was excited with a 488 nm laser. Emission of the biosensor was recorded at 500 nm-530 nm range using sequential scans. Ratio images were generated following a published protocol {Kardash, 2011 #376}. Note, while the published protocol generates YFP/CFP ratio images, we used it to generate Oxidised/Reduced (roGFP2 ratio) ratio images. The roGFP2 ratio at the basal surface of MDCK cysts was used to indicate LOX inhibition. LOX inhibitors were added 30 min prior to imaging.
For clarity, readout for DMSO treated cysts represents 0% inhibition (no inhibition) and readout for BAPN at 1 mM is used as 100% inhibition (full inhibition).

[3] = 1 hr incubation with enzyme; read-out: LOXL2 IC50 b) 1 hr

Compound	pIC50 (LOXL2; [3])	pIC50 (LOX [1])	pIC50 (LOXL3)	pIC50 (LOXL2; 20 hr incubation with enzyme; read-out: LOXL2 IC50 c) 20 hr)	inhibition at 2.5 µM (LOX [2]; read-out: Cyst LOX (% inhibition) @ 2.5 uM) [%]	inhibition at 10 µM (LOX [2]; read-out: Cyst LOX @ 10 uM (% inhibition)) [%]
NCCS(=O)(=O)C(F)C(=O)N1C[C@@H]2CN(c3c(F)c(F)c(F)c(F)c3F)C[C@@H]2C1 (stereo partly drawn) [Example 20, 2-((2-aminoethyl)-sulfonyl)-2-fluoro-1-(cis-5-(perfluoro-phenyl)hexahydro-pyrrolo[3,4-c]pyrrol-2(1H)-yl)ethan-1-one]	6.62	5.62	6.47			
CCOc1ccc(N2C[C@H]3CN(C(=O)C(F)S(=O)(=O)CCN)C[C@@H]2C(C)(C)C3)cc1 (stereo partly drawn) [Example 15, 2-((2-aminoethyl)sulfonyl)-1-((1 S,5S)-6-(4-ethoxyphenyl)-9,9-dimethyl-3,6-diazabicyclo[3.2.2]nonan-3-yl)-2-fluoroethan-1-one]		5.66		6.92	78	
CCOc1ccc(N2C[C@H]3CN(C(=O)Nc4ccc(S(=O)(=O)CCN)cc4)C[C@@H]2C(C)(C)C3)cc1 [Example 37, (1S,5S)—N-(4-((2-aminoethyl)sulfonyl)phenyl)-6-(4-ethoxyphenyl)-9,9-dimethyl-3,6-diazabicyclo[3.2.2]nonane-3-carboxamide]	4.70	4.59				78

Continued, in another order:

pIC50 (LOXL2; [3])	pIC50 (LOX [1])	pIC50 (LOXL3)	Compound	pIC50 (LOXL2; 20 hr incubation with enzyme; read-out: LOXL2 IC50 c) 20 hr)	inhibition at 2.5 µM (LOX [2]; read-out: Cyst LOX (% inhibition) @ 2.5 uM) [%]	inhibition at 10 µM (LOX [2]; read-out: Cyst LOX @ 10 uM (% inhibition)) [%]
6.82	6.18	6.66	NCCS(=O)(=O)C(F)C(=O)N1C[C@@H]2CN(c3ccc(Br)cc3)C[C@@H]2C1 (stereo partly drawn) [Example 19, 2-((2-Aminoethyl)-sulfonyl)-2-fluoro-1-(cis-5-(4-bromo-phenyl)hexahydro-pyrrolo[3,4-c]pyrrol-2(1H)-yl)ethan-1-one]			
6.64	5.64	6.36	NCCS(=O)(=O)C(F)C(=O)N1C[C@@H]2CN(c3ccc(F)cc3)C[C@@H]2C1 (mixture of isomers) [Example 18]			

— patent US20220017516A1, “LOX INHIBITORS” (THE INSTITUTE OF CANCER RESEARCH: ROYAL CANCER HOSPITAL, priority 2018, published 2022)
